Data taken from patent US12150930B2 (BDR Pharmaceuticals Int'l Pvt. Ltd., priority 2022, dated 2024).

How the values were obtained:
[1] = Stability of enzalutamide standard solution; type: physicochemical; settings: 25° C., in ACN diluted with dissolution medium
Experimental: In that, 25 ml of ACN was dissolved and diluted with ACN to volume. From this solution, 2 ml of solution was transferred to a 100 ml volumetric flask and diluted with dissolution medium to volume. The standard solution was found stable at 25° C. for 27 h. Sample solution was prepared by adding a 5 ml sample of the present invention in 900 ml of dissolution medium. Further, 2.0 ml of this solution was diluted with 100 ml of dissolution medium.

[2] = API solubility study in solubilizers/solvents/co-solvents (formulation trials); type: physicochemical; settings: ethanol added after addition of API
Excerpt: During the selection of excipients for formulation of Enzalutamide oral solution, first it is required to select the excipients which are not covered by patent of Enzalutamide capsules and also excipients need to meet IIG limits and useful for product development.
In the present invention selection of Solubilizers based on different trials which are like Labrafac Lipophile WL-1349, Labrafil M1944 Cs, Maisine CC, Kolliphor RH 40, Tween 80, Castor Oil, Migloyl 812 etc.
Further, here in the present invention selection of Co-solvents also based on trials and experiments which are Propylene glycol, Polyethylene glycol 400, Poly ethylene glycol 200, Ethanol, Glycerine, Maisine CC etc.
Based on the API solubility study combination of Kolliphor RH 40 with Ethanol and Polyethylene 400 was taken for further study. […]
Process for the Preparation: • 1. Dispensed quantity of Polyoxyl 40 hydrogenated castor oil was taken and started heating with maintained temperature of 45° C. of product. Further, Dispensed quantity of glyceryl monolinoleate was added to material of above step under stirring mixing/homogenization process. • 2. […] Further, then dispensed quantity of Ethanol was added to above step of material and continued process of stirring/homogenization then added dispensed quantity of propylene glycol and continued the process till Enzalutamide was dissolved. […]

[3] = test system: CACO2 monolayers; settings: across CACO2 monolayers; cited from earlier work
[4] = cited from earlier work

## CNC(=O)c1ccc(N2C(=S)N(c3ccc(C#N)c(C(F)(F)F)c3)C(=O)C2(C)C)cc1F [Enzalutamide]
[1]
  time for which the standard solution was found stable: 27 h
[2]
  API solubilized during procedure: approx. 80%
[3]
  mean apparent permeability coefficient: 31 ×10⁻⁶ cm/s
[4]; low solubility and high permeability
  Biopharmaceutics Classification System (BCS) class: Class 2
[4]; physiological pH range
  effect of pH on enzalutamide solubility: not affected by pH
